The source of these data is patent US12569457B2, “Coated beta hydroxybutyric acid crystal and methods for producing the same” (NANJING NUTRABUILDING BIO-TECH CO., LTD., priority 2021, dated 2026).

The data set in a line: Stability test of coated BHB free acid crystal pellets/granules vs BHB free acid crystal at 25° C./60% RH (moisture and dipolymer content). The class given is physicochemical. On the procedure:
The coated BHB free acid crystal pellets/granules were subjected to a controlled temperature of 25° C./60% RH. The products were subjected to stability testing at the following time intervals: 0 time, 3 months, 6 months, 9 months, and 12 months.
The preparation method of such coated BHB free acid crystal pellets/granules includes the following steps: • (1) Wet granulation: Mix 3 kg of BHB free acid crystals and 0.05 kg of microcrystalline fiber, add 0.06 kg of water for wet granulation to obtain wet materials. The stirring motor rotating speed of the wet granulator is adjusted to 45 r/min, the speed of the shearing head is 800 r/min and the feeding speed of the binder is 5 r/min; • (2) Extrusion: Extrude the wet material obtained in step (1) by the extruder with the sieve plate aperture of 0.8 mm, to obtain strip materials with the same diameter. The screw speed of the extruder is adjusted to 150 r/min. […] Obtain strip materials with the same diameter; • (3) Spheronization: Sphere the strip materials obtained in step (2) at the high speed through the spheronization device to get pellets/granules of the same size and good roundness. The rotation speed of the spheronization device is adjusted to 1000 r/min and the time of spheronization is 6 min; • (4) Drying: Dry the pellets/granules prepared in step (3) to get BHB free acid crystal pellets/granules. The drying temperature is adjusted to 35° C. and the drying time is 25 min; • (5) Coating: Coating the BHB free acid crystal pellets/granules prepared in step (4) by Wurster coater with coating material, which is dissolved in water or ethanol at a solid content of 20% for use. The air inlet speed of the Wurster coater is 25 Hz and the coating temperature is 38° C., and the feeding speed of the coating liquid is 2 r/min. Drying for 15 min after coating is completed to obtain the coated BHB free acid crystal.The coated BHB free acid crystal pellets/granules were subjected to a controlled temperature of 25° C./60% RH. The products were subjected to stability testing at the following time intervals: 0 time, 3 months, 6 months, 9 months, and 12 months.

Consider `CC(O)CC(=O)O` (stereo not drawn) [BHB Free Acid Crystal, beta hydroxybutyric acid], for which the “Dipolymer Content” value was 0.38% (0 time); 1.42% (3 months); 4.29% (6 months); 10.65% (9 months); 29.07% (12 months). Also, the “Moisture Content” value (0 time) is 0.50%; the “Moisture Content” value (3 months) is listed as 2.14%; the “Moisture Content” value (6 months) was determined as 10.63%; the “Moisture Content” value (9 months) is reported as 18.16%; the “Moisture Content” value (12 months) is 29.97%.
